These results are taken from US12522612B2, “PDE4 inhibitors, pharmaceutical compositions, and therapeutic applications” (BioTheryX, Inc., priority 2019, dated 2026).

Some results are limits rather than exact numbers.

The test system of one experiment is TNF-α. As to the kind of experiment: Cell-based TNF-α inhibition assay in LPS-induced PBMCs (Meso Scale). The note with it: PBMC; compound concentration 0.1 μM; PBMCs pretreated 1 h, LPS 100 ng/mL 18-24 h; relative to stimulated DMSO control. The method, then: Frozen primary blood mononuclear cells (PBMCs) were quick thawed, washed once with RPMI 1640 media supplemented with 10% fetal bovine serum, 1% penicillin, and 1% streptomycin, and plated in a 96 well plate at 200,000 cells per well. The cells were pretreated with DMSO only as a control or a compound for 1 h, and then induced with LPS (lipopolysaccharide) (100 ng/mL) for 18-24 h. The supernatant was analyzed for TNF-α using the Meso Scale assay. Compound activity was determined as a percentage of the stimulated DMSO control. The results are summarized in Table 1, where A represents a percent inhibition value ≥60%; B represents a percent inhibition value <60% and ≥40%; C represents a percent inhibition value <40% and >20%; and D represents a single percent inhibition value <20%.
One may read the inhibition as how much of the control response was suppressed. As for `O=C1CCC(N2Cc3cc(C4CCN(CCCCCCCOc5cc(C(=O)Nc6c(Cl)cncc6Cl)ccc5OC(F)F)CC4)c(F)cc3C2=O)C(=O)N1` (stereo not shown) [Compound B61, N-(3,5-Dichloropyridin-4-yl)-4-(difluoromethoxy)-3-((7-(4-(2-(2,6-dioxopiperidin-3-yl)-6-fluoro-1-oxoisoindolin-5-yl)piperidin-1-yl)heptyl)oxy)benzamide], the inhibition at 0.1 µM is no less than 60%.
As for `CCOc1cc([C@@H](CS(C)(=O)=O)N2C(=O)c3cccc(NC(=O)CCCCCCCCC(=O)N[C@H](C(=O)N4C[C@H](O)C[C@H]4C(=O)NCc4ccc(-c5scnc5C)cc4)C(C)(C)C)c3C2=O)ccc1OC` [Compound B63, N^1-(2-((S)-1-(3-Ethoxy-4-methoxyphenyl)-2-(methylsulfonyl)ethyl)-1,3-dioxoisoindolin-4-yl)-N^10—((S)-1-((2S,4R)-4-hydroxy-2-((4-(4-methylthiazol-5-yl)benzyl)carbamoyl)pyrrolidin-1-yl)-3,3-dimethyl-1-oxobutan-2-yl)decanediamide], the inhibition at 0.1 µM is no less than 60%.
Still for that read-out and setting: then `CCOc1cc([C@@H](CS(C)(=O)=O)N2C(=O)c3cccc(NC(=O)CCOCc4ccc(COCCNc5cccc6c5C(=O)N(C5CCC(=O)NC5=O)C6=O)cc4)c3C2=O)ccc1OC` (stereo partly drawn) [Compound B64, 3-((4-((2-((2-(2,6-Dioxopiperidin-3-yl)-1,3-dioxoisoindolin-4-yl)amino)ethoxy)-methyl)benzyl)oxy)-N-(2-((S)-1-(3-ethoxy-4-methoxyphenyl)-2-(methylsulfonyl)ethyl)-1,3-dioxoisoindolin-4-yl)propanamide], with no less than 60%.

Still in this experiment, the particulars now being: PBMC; compound concentration 1 μM; PBMCs pretreated 1 h, LPS 100 ng/mL 18-24 h; relative to stimulated DMSO control.
For the compound `CCOc1cc([C@@H](CS(C)(=O)=O)N2C(=O)c3cc(C#CCCCCCN4CCC(c5cc(F)cc6c5CN(C5CCC(=O)NC5=O)C6=O)CC4)cc(NC(C)=O)c3C2=O)ccc1OC` (stereo partly drawn) [Compound B47, N-(6-(7-(4-(2-(2,6-dioxopiperidin-3-yl)-6-fluoro-1-oxoisoindolin-4-yl)piperidin-1-yl)hept-1-yn-1-yl)-2-((S)-1-(3-ethoxy-4-methoxyphenyl)-2-(methylsulfonyl)ethyl)-1,3-dioxoisoindolin-4-yl)acetamide], the inhibition at 1 µM was no less than 60%.
Still for that read-out and setting: then `CCOc1cc([C@@H](CS(C)(=O)=O)N2C(=O)c3cccc(NC(=O)COCCOCCOCCOCCNc4cccc5c4C(=O)N(C4CCC(=O)NC4=O)C5=O)c3C2=O)ccc1OC` (stereo partly drawn) [Compound B48, 14-((2-(2,6-Dioxopiperidin-3-yl)-1,3-dioxoisoindolin-4-yl)amino)-N-(2-((S)-1-(3-ethoxy-4-methoxyphenyl)-2-(methylsulfonyl)ethyl)-1,3-dioxoisoindolin-4-yl)-3,6,9,12-tetraoxatetradecan-1-amide], with no less than 60%; and `COc1ccc(C2CNC(=O)C2)cc1OCCCCCCCN1CCC(c2cc(F)cc3c2CN(C2CCC(=O)NC2=O)C3=O)CC1` (stereo not shown) [Compound B53, 3-(6-Fluoro-4-(1-(7-(2-methoxy-5-(5-oxopyrrolidin-3-yl)phenoxy)heptyl)piperidin-4-yl)-1-oxoisoindolin-2-yl)piperidine-2,6-dione], with less than 20%.
Still for that read-out and setting: then `COc1ccc(N2C(=O)c3ccc(NCCCCCCCN4CCC(c5cc(F)cc6c5CN(C5CCC(=O)NC5=O)C6=O)CC4)cc3C2=O)cc1OC1CCCC1` (stereo not shown) [Compound B54, 2-(3-(Cyclopentyloxy)-4-methoxyphenyl)-5-((7-(4-(2-(2,6-dioxopiperidin-3-yl)-6-fluoro-1-oxoisoindolin-4-yl)piperidin-1-yl)heptyl)amino)isoindoline-1,3-dione], with 20 to 40%; and `COc1ccc(C2CNC(=O)C2)cc1OCCCCCCCN1CCC(c2cc3c(cc2F)C(=O)N(C2CCC(=O)NC2=O)C3)CC1` (stereo not shown) [Compound B55, 3-(6-Fluoro-5-(1-(7-(2-methoxy-5-(5-oxopyrrolidin-3-yl)phenoxy)heptyl)piperidin-4-yl)-1-oxoisoindolin-2-yl)piperidine-2,6-dione], with 20 to 40%.
On the same count and under the same terms, under `COc1ccc(N2Cc3ccc(NCCCCCCCN4CCC(c5cc(F)cc6c5CN(C5CCC(=O)NC5=O)C6=O)CC4)cc3C2=O)cc1OC1CCCC1` (stereo not shown) [Compound B56, 3-(4-(1-(7-((2-(3-(Cyclopentyloxy)-4-methoxyphenyl)-3-oxoisoindolin-5-yl)amino)heptyl)piperidin-4-yl)-6-fluoro-1-oxoisoindolin-2-yl)piperidine-2,6-dione] stands 40 to 60%.
With `O=C1CC(c2ccc(OCCCCCCCN3CCC(c4cc(F)cc5c4CN(C4CCC(=O)NC4=O)C5=O)CC3)c(OC3CCCC3)c2)CN1` (stereo not shown) [Compound B57, 3-(4-(1-(7-(2-(Cyclopentyloxy)-4-(5-oxopyrrolidin-3-yl)phenoxy)heptyl)piperidin-4-yl)-6-fluoro-1-oxoisoindolin-2-yl)piperidine-2,6-dione], the inhibition at 1 µM was less than 20%.
Same read-out and setting: under `Nc1ccc2c(c1)C(=O)N(c1ccc(OCCCCCCCN3CCC(c4cc(F)cc5c4CN(C4CCC(=O)NC4=O)C5=O)CC3)c(OC3CCCC3)c1)C2=O` (stereo not shown) [Compound B58, 5-Amino-2-(3-(cyclopentyloxy)-4-((7-(4-(2-(2,6-dioxopiperidin-3-yl)-6-fluoro-1-oxoisoindolin-4-yl)piperidin-1-yl)heptyl)oxy)phenyl)isoindoline-1,3-dione] stands less than 20%; under `O=C1CCC(N2Cc3c(cc(F)cc3C3CCN(CCCCCCCOc4ccc(N5C(=O)c6ccccc6C5=O)cc4OC4CCCC4)CC3)C2=O)C(=O)N1` (stereo not shown) [Compound B59, 2-(3-(Cyclopentyloxy)-4-((7-(4-(2-(2,6-dioxopiperidin-3-yl)-6-fluoro-1-oxoisoindolin-4-yl)piperidin-1-yl)heptyl)oxy)phenyl)isoindoline-1,3-dione], less than 20%; under `COc1ccc(N2Cc3ccc(N)cc3C2=O)cc1OCCCCCCCN1CCC(c2cc(F)cc3c2CN(C2CCC(=O)NC2=O)C3=O)CC1` (stereo not shown) [Compound B60, 3-(4-(1-(7-(5-(6-Amino-1-oxoisoindolin-2-yl)-2-methoxyphenoxy)heptyl)piperidin-4-yl)-6-fluoro-1-oxoisoindolin-2-yl)piperidine-2,6-dione], 20 to 40%.
The same measure, in the same setting: under `O=C1CCC(N2Cc3cc(C4CCN(CCCCCCCOc5cc(C(=O)Nc6c(Cl)cncc6Cl)ccc5OC(F)F)CC4)c(F)cc3C2=O)C(=O)N1` (stereo not shown) [Compound B61, N-(3,5-Dichloropyridin-4-yl)-4-(difluoromethoxy)-3-((7-(4-(2-(2,6-dioxopiperidin-3-yl)-6-fluoro-1-oxoisoindolin-5-yl)piperidin-1-yl)heptyl)oxy)benzamide] stands no less than 60%; under `CCOc1cc([C@@H](CS(C)(=O)=O)N2C(=O)c3cccc(NC(=O)CCCCCCCCC(=O)N[C@H](C(=O)N4C[C@H](O)C[C@H]4C(=O)NCc4ccc(-c5scnc5C)cc4)C(C)(C)C)c3C2=O)ccc1OC` [Compound B63, N^1-(2-((S)-1-(3-Ethoxy-4-methoxyphenyl)-2-(methylsulfonyl)ethyl)-1,3-dioxoisoindolin-4-yl)-N^10—((S)-1-((2S,4R)-4-hydroxy-2-((4-(4-methylthiazol-5-yl)benzyl)carbamoyl)pyrrolidin-1-yl)-3,3-dimethyl-1-oxobutan-2-yl)decanediamide], no less than 60%.
On the same count and under the same terms, under `CCOc1cc([C@@H](CS(C)(=O)=O)N2C(=O)c3cccc(NC(=O)CCOCc4ccc(COCCNc5cccc6c5C(=O)N(C5CCC(=O)NC5=O)C6=O)cc4)c3C2=O)ccc1OC` (stereo partly drawn) [Compound B64, 3-((4-((2-((2-(2,6-Dioxopiperidin-3-yl)-1,3-dioxoisoindolin-4-yl)amino)ethoxy)-methyl)benzyl)oxy)-N-(2-((S)-1-(3-ethoxy-4-methoxyphenyl)-2-(methylsulfonyl)ethyl)-1,3-dioxoisoindolin-4-yl)propanamide] stands no less than 60%.
Turning to `COc1ccc(N2C(=O)c3ccsc3C2=O)cc1OCCCCCCCN1CCC(c2cc(F)cc3c2CN(C2CCC(=O)NC2=O)C3=O)CC1` (stereo not shown) [Compound B65, 5-(3-((7-(4-(2-(2,6-Dioxopiperidin-3-yl)-6-fluoro-1-oxoisoindolin-4-yl)piperidin-1-yl)heptyl)oxy)-4-methoxyphenyl)-4H-thieno[2,3-c]pyrrole-4,6(5H)-dione], the inhibition at 1 µM was less than 20%.
Still for that read-out and setting: under `COc1ccc(C2CNC(=O)C2)cc1OCCCCCCCNc1cccc2c1C(=O)N(C1CCC(=O)NC1=O)C2=O` (stereo not shown) [Compound B66, 2-(2,6-Dioxopiperidin-3-yl)-4-((7-(2-methoxy-5-(5-oxopyrrolidin-3-yl)phenoxy)-heptyl)amino)isoindoline-1,3-dione] stands no less than 60%; under `COc1ccc(C2CNC(=O)C2)cc1OCCCCCCCCC(=O)N[C@H](C(=O)N1C[C@H](O)C[C@H]1C(=O)NCc1ccc(-c2scnc2C)cc1)C(C)(C)C` (stereo partly drawn) [Compound B67, (2S,4R)-4-Hydroxy-1-((2S)-2-(9-(2-methoxy-5-(5-oxopyrrolidin-3-yl)phenoxy)-nonanamido)-3,3-dimethylbutanoyl)-N-(4-(4-methylthiazol-5-yl)benzyl)pyrrolidine-2-carboxamide], no less than 60%.
